Results: patent US20210169961A1, “HEPATOPROTECTIVE TRADITIONAL CHINESE MEDICINE COMPOSITION, EXTRACT THEREOF, AND PHARMACEUTICAL USE THEREOF” (SHUGUANG HOSPITAL AFFILIATED TO SHANGHAI UNIVERSITY OF …, priority 2018, published 2021)

How the values were obtained:
Type in all cases: in vivo, human
[1] = system: patients with HBeAg negative chronic hepatitis B; assay: Curative effects on patients with hepatitis B, randomized controlled trial (Example 31); conditions: after 30-month treatment, control group: Entecavir + placebo
[2] = system: CHB patients (hepatic fibrosis); assay: Curative effect on patients with hepatic fibrosis, double-blind placebo-control multicenter trial (Example 34); conditions: after 12 months, treatment group: Entecavir + test sample, P<0.001
[3] = system: patients with advanced primary hepatocarcinoma after surgery; assay: Curative effect of the compound granules on patients with liver cancer (Example 36); conditions: for patients of liver cancer recurred: test sample + Entecavir vs Entecavir

SMILES: C=C1[C@H](CO)[C@@H](O)C[C@@H]1n1cnc2c(=O)[nH]c(N)nc21 [Entecavir]
- ALT recurrence rate ([1]; treatment group: test sample 60 g clear extract/day + Entecavir 0.5 mg/day): 93.2%
- HBsAg averagely reduced by ([1]; treatment group: test sample + Entecavir): 0.028 log IU/ml
- HBeAg levels compared to those before treatment [2]: remarkably decreased
- therapeutic effects on traditional Chinese medicine symptoms: invalid cases ([3]; after treatment): 65 cases
- therapeutic effects on traditional Chinese medicine symptoms: patients with curative effect ([3]; after treatment): 0 patients
- therapeutic effects on traditional Chinese medicine symptoms: valid cases ([3]; after treatment): 16 cases
- patients with nausea and vomiting improved ([3]; among 38 patients (treatment group) / 51 patients (control group)): 15 cases
- patients with tastelessness improved ([3]; among 61 patients (treatment group) / 58 patients (control group)): 25 cases
- patients with stomach distension improved ([3]; among 68 patients (treatment group) / 62 patients (control group)): 35 cases
- patients with fatigue and acratia improved ([3]; among 73 patients (treatment group) / 69 patients (control group)): 45 cases
- patients of liver cancer recurred ([3]; at 3 months of follow-up visit): 48 patients
- patients of liver cancer recurred ([3]; at 3 months of treatment): 13 patients
- patients of liver cancer recurred ([3]; at 6 months of treatment): 44 patients
- accumulative survival rate ([3]; treatment group: test sample 60 g clear extract/day + Entecavir 0.5 mg/day, control group: Entecavir 0.5 mg/day): 76.7%
